Counter-ions that a name gives are not always drawn.
Assays:
[1] = Physical stability under stress and ambient conditions; assay type: physicochemical
Description: (§1) The hydrochloride and fumarate Forms B, B2 and B3 salts of (3R,4R,5S)-5-(difluoromethyl)piperidine-3,4-diol were also found to be hygroscopic.

[2] = Dynamic vapor sorption (DVS) hygroscopicity analysis; assay type: physicochemical; conditions: for Hygroscopicity (% water uptake up to 45% relative humidity): DVS, 25° C., 60 minutes hold per 10% step in relative humidity, weight increase as percentage of material weight
Description: Differences in hygroscopicity (moisture uptake) of the various forms of a solid material provide a measure of their relative stability at increasing relative humidity. Dynamic vapor sorption (DVS) analysis was performed for (3R,4R,5S)-5-(difluoromethyl)piperidine-3,4-diol, (3R,4R,5S)-5-(difluoromethyl)piperidine-3,4-diol fumarate Form A, (3R,4R,5S)-5-(difluoromethyl)piperidine-3,4-diol fumarate Form 1B and (3R,4R,5S)-5-(difluoromethyl)piperidine-3,4-diol tosylate. Moisture sorption isotherms for samples of each salt and the free base were obtained using a DVS-1 system from Surface Measurement Systems (London, UK). The relative humidity was cycled from 45% to 95% (sorption), back to 0% (desorption) and back to 45% (sorption) at a constant temperature of 25° C. with a hold time of 60 minutes per each 10% step in relative humidity. The increase in weight due to moisture uptake was measured as a percentage of the weight of the material.

[3] = target: T1, β-glucocerebrosidase (Homo sapiens, UniProt P04062); conditions: as described in US 2011/0091442 and 2011/0092541; cited from earlier work
T1 sequence (P04062 40-536): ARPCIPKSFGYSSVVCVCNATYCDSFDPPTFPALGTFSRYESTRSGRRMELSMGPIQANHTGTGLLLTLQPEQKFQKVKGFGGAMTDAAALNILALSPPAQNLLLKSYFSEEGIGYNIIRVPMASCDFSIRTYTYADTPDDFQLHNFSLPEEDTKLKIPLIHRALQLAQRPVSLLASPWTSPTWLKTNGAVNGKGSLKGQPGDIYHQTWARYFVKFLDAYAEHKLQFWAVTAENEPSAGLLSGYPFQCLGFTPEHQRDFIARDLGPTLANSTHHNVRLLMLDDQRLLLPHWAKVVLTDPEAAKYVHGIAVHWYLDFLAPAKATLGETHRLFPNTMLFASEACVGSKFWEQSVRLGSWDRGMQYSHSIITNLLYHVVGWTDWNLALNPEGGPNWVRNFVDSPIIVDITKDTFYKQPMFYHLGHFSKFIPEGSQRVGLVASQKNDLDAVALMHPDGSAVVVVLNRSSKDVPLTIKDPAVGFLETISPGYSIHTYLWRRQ

[4] = Separate dynamic vapor sorption test (hydrochloride salt); assay type: physicochemical
Description: as §1

Compound: O[C@H]1[C@H](O)CNC[C@@H]1C(F)F [Fumarate Form A, (3R,4R,5S)-5-(difluoromethyl)piperidine-3,4-diol fumarate Form A]
- Physical state after one day at 40° C. and 75% relative humidity [1]: physically stable
- Physical stability in slurries ([1]; slurries at 10° C. and 30° C. in a variety of organic solvents): physically stable
- Physical stability on wet grinding ([1]; wet grinding for 60 minutes at 30 Hz): physically stable
- Hygroscopicity (% water uptake up to 45% relative humidity) [2]: 0.09%

Compound: O[C@H]1[C@H](O)CNC[C@@H]1C(F)F [Free Base, (3R,4R,5S)-5-(difluoromethyl)piperidine-3,4-diol]
- Inhibition of β-glucocerebrosidase (in words) [3]: potent and selective inhibitors
- Hygroscopicity (% water uptake up to 45% relative humidity) [2]: 9.3%

Compound: O=C(O)/C=C/C(=O)O.O[C@H]1[C@H](O)CNC[C@@H]1C(F)F [fumarate Form B3, (3R,4R,5S)-5-(difluoromethyl) piperidine-3,4-diol fumarate Form B3]
- Stability at ambient conditions ([1]; at least one day at ambient conditions (room temperature)): remained stable

Compound: O=C(O)/C=C/C(=O)O.O[C@H]1[C@H](O)CNC[C@@H]1C(F)F [fumarate Form B, (3R,4R,5S)-5-(difluoromethyl) piperidine-3,4-diol fumarate Forms B, B2 and B3]
- Hygroscopicity (in words) [1]: hygroscopic
- Physical state after one day at 40° C. and 75% relative humidity [1]: became deliquescent

Compound: O=C(O)/C=C/C(=O)O.O[C@H]1[C@H](O)CNC[C@@H]1C(F)F [Fumarate Form 1B, (3R,4R,5S)-5-(difluoromethyl) piperidine-3,4-diol fumarate Form 1B]
- Hygroscopicity (% water uptake up to 45% relative humidity) [2]: 0.497%
- Hygroscopicity of the salt relative to the free base (fold lower than free base) ([2]; comparison of the Table 6 DVS values): roughly 20 fold

Compound: Cc1ccc(S(=O)(=O)O)cc1.O[C@H]1[C@H](O)CNC[C@@H]1C(F)F [Tosylate, (3R,4R,5S)-5-(difluoromethyl)piperidine-3,4-diol tosylate]
- Hygroscopicity (% water uptake up to 45% relative humidity) [2]: 0.08%

Compound: Cl.O[C@H]1[C@H](O)CNC[C@@H]1C(F)F [hydrochloride, (3R,4R,5S)-5-(difluoromethyl)piperidine-3,4-diol hydrochloride]
- Relative humidity after which the salt became deliquescent [4]: > 60 % relative humidity
- Inhibition of β-glucocerebrosidase (in words) [3]: potent and selective inhibitors
- Hygroscopicity (in words) [1]: hygroscopic

Source: patent publication US9750733B2, “Compounds for preventing and/or treating lysosomal storage disorders and/or degenerative disorders of the central nervous system” (Amicus Therapeutics, Inc., priority 2012, dated 2017)
